Data as given in ChEMBL document CHEMBL1275438, “The human CXC chemokine granulocyte chemotactic protein 2 (GCP-2)/CXCL6 possesses membrane-disrupting properties and is antibacterial” (2008).
≈ marks a conversion by molar mass, not a printed value. Calls of active or inactive are those of the source. The calls are words filed in the database; no cut-off is given here.

What was measured:
Type in all cases: functional
[1] = tested on: Streptococcus pyogenes; assay: Antibacterial activity against Streptococcus pyogenes AP1 after 1 hr by bactericidal assay
[2] = tested on: Escherichia coli; assay: Antibacterial activity against Escherichia coli 37.4 after 1 hr by bactericidal assay
[3] = tested on: Lipid bilayer; assay: Induction of negatively charged DOPE/DOPG liposome disruption by spectrometry in presence of 150 mM sodium chloride
[4] = tested on: Lipid bilayer; assay: Induction of negatively charged DOPE/DOPG liposome disruption assessed as percent leakage after <1000 sec by spectrometry

| SMILES | MBC [1] [µM] | MBC ([1]; Streptococcus pyogenes, AP1, 1 h, read-out: MBC) [µM] | MBC [2] [µM] | MBC ([2]; Escherichia coli, 37.4, 1 h, read-out: MBC) [µM] | Activity [3] | Activity [4] [%] |
| --- | --- | --- | --- | --- | --- | --- |
| CC[C@H](C)[C@H](NC(=O)[C@H](CCCCN)NC(=O)[C@H](CCC(N)=O)NC(=O)[C@@H](NC(=O)[C@@H](NC(=O)[C@H](CCCCN)NC(=O)[C@H](CCCCN)NC(=O)[C@H](CC(C)C)NC(=O)[C@H](Cc1ccccc1)NC(=O)[C@@H]1CCCN1C(=O)[C@H](C)N)C(C)C)[C@@H](C)CC)C(=O)N[C@@H](CC(C)C)C(=O)N[C@@H](CC(=O)O)C(=O)N[C@@H](CO)C(=O)NCC(=O)N[C@@H](CC(N)=O)C(=O)N[C@@H](CCCCN)C(=O)N[C@@H](CCCCN)C(=O)N[C@@H](CC(N)=O)C(=O)O | 9.5 (≈ 20.3 µg/mL) | 5.7 (≈ 12.2 µg/mL) | 9.5 (≈ 20.3 µg/mL) | 5.6 (≈ 12 µg/mL) | – | – |
| CC[C@H](C)[C@H](NC(=O)[C@H](CCCCN)NC(=O)[C@H](CCC(N)=O)NC(=O)[C@@H](NC(=O)[C@@H](NC(=O)[C@H](CCCCN)NC(=O)[C@H](CCCCN)NC(=O)[C@H](CC(C)C)NC(=O)[C@H](Cc1ccccc1)NC(=O)[C@@H]1CCCN1C(=O)[C@@H](C)N)C(C)C)[C@@H](C)CC)C(=O)N[C@@H](CC(C)C)C(=O)N[C@@H](CC(=O)O)C(=O)N[C@@H](CO)C(=O)NCC(=O)N[C@@H](CC(N)=O)C(=O)N[C@@H](CCCCN)C(=O)N[C@@H](CCCCN)C(=O)N[C@@H](CC(N)=O)C(=O)O | – | – | – | – | Active | 70 |
